Laboratory results as given in patent US20140349340A1, “MBTH-LIKE PROTEINS IN THE PRODUCTION OF SEMI SYNTHETIC ANTIBIOTICS” (DSM SINOCHEM PHARMACEUTICALS NETHERLANDS B.V., priority 2012, published 2014).

Key:
Type in all cases: biochemical
[1] = PPi release assay, adenylation activity with L-hydroxyphenylglycine; conditions: for adenylation activity (absorption 360 nm, PPi release assay) / adenylation activity (PPi release assay): substrate L-hydroxyphenylglycine
Excerpt: (§1) These assays use inorganic pyrophosphatases to convert PPi produced during aminoacyl-AMP formation to orthophosphate (Pi). To measure Pi concentrations some of these assays use molybdate/malachite green reagent for colorimetric detection (McQuade et al. 2008) or, as used in the context of the present invention, a shift in absorbance maximum by conversion of 7-methyl-6-thioguanosine (MESG) by purine nucleoside phosphorylase (Ehmann D. E. et al. (Proc. Natl. Acad. Sci. (2000) 97, 2509-2514) or Daniel & Aldrich (Anal. Biochem. (2010) 404, 56-63)).
(§2) To determine the adenylation activity of the adenylation domains, the Enzchek® pyrophosphate assay kit (Life Technologies) was used as described by Ehmann D. E. et al. (Proc Nat Acad Science (2000) 97, 2509-2514) with small modifications. The reactions were performed 96 wells UV/Vis transparent plates (BD Falcon). The reaction mixture comprises 50 mM HEPES pH 8.0, 10 mM MgCl2, 5 mM ATP, 75 mM DTT, 0.03 U Inorganic Pyrophosphatase (IP), 1 U Purine Nucleoside Phosphorylase (PNP) and 0.2 mM MESG in a volume of 70 μl. Next 20 μl (around 0.5-2 μM final concentration) of purified A(T) domain, with or without co-purification of the MbtH like helper protein was added and the reaction was pre-incubated for 15 minutes at RT to reduce contaminating Pi. Following the pre-incubation, 10 μl of a 10 mM or 1 mM solution of the appropriate amino acid depending on the performed specificity determination was added to initiate the adenylation reaction and the absorbance at 360 nm was measured using a TECAN I Control spectrophotometer. Absorbance measurements were made every 5 to 10 min over a period of up to 240 min. A reaction with addition of 10 μl MilliQ water instead was used to determine and subtract the background absorbance. As substrates the following amino acids were used: D- or L-phenylalanine, D- or L-hydroxyphenylglycine, D- or L-phenylglycine, L-tryptophan, L-valine, L-cysteine, and L-leucine.

[2] = PPi release assay, adenylation activity with D-hydroxyphenylglycine; conditions: for adenylation activity (absorption 360 nm, PPi release assay) / adenylation activity (PPi release assay): substrate D-hydroxyphenylglycine
Excerpt: as §1, §2

[3] = PPi release assay, adenylation activity with D-phenylalanine; conditions: substrate D-phenylalanine; for adenylation activity (PPi release assay): co-purified with Tcp13, or Tcp17 or VMbtH
Excerpt: as §1, §2

[4] = PPi release assay, adenylation activity with L-phenylalanine; conditions: substrate L-phenylalanine; for adenylation activity (PPi release assay): co-purified with Tcp13, or Tcp17 or VMbtH
Excerpt: as §1, §2

[5] = PPi release assay, adenylation activity with L-phenylglycine; conditions: for adenylation activity (PPi release assay): substrate L-phenylglycine, co-purified with Tcp13, or Tcp17 or VMbtH; for Formed PPi: substrate L-PG 1 mM
Excerpt: as §1, §2

[6] = PPi release assay, adenylation activity with D-phenylglycine; conditions: for adenylation activity (PPi release assay): substrate D-phenylglycine, co-purified with Tcp13, or Tcp17 or VMbtH; for Formed PPi: substrate D-PG 1 mM
Excerpt: as §1, §2

[7] = co-purified with MbtH-like protein VMbtH
[8] = protein alone, without MbtH-like protein
[9] = co-purified with Tcp13, or Tcp17 or VMbtH
[10] = co-purified with MbtH-like protein CMbtH
[11] = substrate L-HPG 0.1 mM, co-purified with MbtH-like protein Tcp 13
[12] = substrate L-HPG 0.1 mM, co-purified with MbtH-like protein Tcp 17
[13] = substrate L-HPG 0.1 mM, co-purified with MbtH-like protein VMbtH
[14] = substrate L-HPG 1 mM, co-purified with MbtH-like protein Tcp 13
[15] = substrate L-HPG 1 mM, co-purified with MbtH-like protein Tcp 17
[16] = substrate L-HPG 1 mM, co-purified with MbtH-like protein VMbtH
[17] = co-purified with MbtH-like protein Tcp13
[18] = co-purified with MbtH-like protein Tcp 13
[19] = co-purified with MbtH-like protein Tcp 17
[20] = substrate D-HPG 0.1 mM, co-purified with MbtH-like protein Tcp 13
[21] = substrate D-HPG 0.1 mM, co-purified with MbtH-like protein Tcp 17
[22] = substrate D-HPG 0.1 mM, co-purified with MbtH-like protein VMbtH
[23] = substrate D-HPG 1 mM, co-purified with MbtH-like protein Tcp 13
[24] = substrate D-HPG 1 mM, co-purified with MbtH-like protein Tcp 17
[25] = substrate D-HPG 1 mM, co-purified with MbtH-like protein VMbtH

Substance | adenylation activity (absorption 360 nm, PPi release assay) [1, 7] | adenylation activity (absorption 360 nm, PPi release assay) [1, 8] | adenylation activity (absorption 360 nm, PPi release assay) [2, 7] | adenylation activity (absorption 360 nm, PPi release assay) [2, 8] | adenylation activity (absorption 360 nm, PPi release assay) [3, 7] | adenylation activity (absorption 360 nm, PPi release assay) [3, 8] | adenylation activity (absorption 360 nm, PPi release assay) [4, 7] | adenylation activity (absorption 360 nm, PPi release assay) [4, 8] | adenylation activity (PPi release assay) [1, 9] | adenylation activity (PPi release assay) [5] | adenylation activity (PPi release assay) [6] | adenylation activity (PPi release assay) [2, 9] | adenylation activity (PPi release assay) [3] | adenylation activity (PPi release assay) [4] | Formed PPi [1, 11] [mM/min/mM enzyme] | Formed PPi [1, 12] [mM/min/mM enzyme] | Formed PPi [1, 13] [mM/min/mM enzyme] | Formed PPi [1, 14] [mM/min/mM enzyme] | Formed PPi [1, 15] [mM/min/mM enzyme] | Formed PPi [1, 16] [mM/min/mM enzyme] | further results
Dbv25_M1_A: purified adenylation domain of Dbv25 module M1 (SEQ ID NO: 2); Nonomuraea sp. ATCC 39727 | clear adenylation activity | No adenylation activity | clear adenylation activity | No adenylation activity | no activity | No adenylation activity | no activity | No adenylation activity | – | – | – | – | – | – | – | – | – | – | – | – | –
Teg7_M1_A: purified adenylation domain of Teg7 module M1 (SEQ ID NO: 27); uncultured soil bacterium | – | No adenylation activity | – | No adenylation activity | – | No adenylation activity | – | No adenylation activity | no adenylation activity | no adenylation activity | no adenylation activity | no adenylation activity | no adenylation activity | no adenylation activity | – | – | – | – | – | – | adenylation activity (PPi release assay) ([1]; co-purified with MbtH-like protein TMbtH): the same specificity
ComB_M1_A: purified adenylation domain of ComB module M1 (SEQ ID NO: 9); Streptomyces lavendulae | – | No adenylation activity | – | No adenylation activity | – | No adenylation activity | – | No adenylation activity | no adenylation activity | no adenylation activity | no adenylation activity | no adenylation activity | no adenylation activity | no adenylation activity | – | – | – | – | – | – | adenylation activity (PPi release assay) [1, 10]: confirmed its activity; adenylation activity (PPi release assay) [2, 10]: confirmed its activity
Tcp11_M1_A: purified adenylation domain of Tcp11 module M1 (SEQ ID NO: 7), maltose binding protein fusion, His-tag; Actinoplanes teichomyceticus | – | No adenylation activity | – | No adenylation activity | – | No adenylation activity | – | No adenylation activity | – | – | – | – | – | – | 0.80 | 0.95 | 1.38 | 1.03 | 1.04 | 1.54 | adenylation activity (absorption 360 nm, PPi release assay) [1, 17]: clear adenylation activity; Formed PPi [5, 18]: 0.17 mM/min/mM enzyme; Formed PPi [5, 19]: 0.23 mM/min/mM enzyme; Formed PPi [5, 7]: 0.09 mM/min/mM enzyme; Formed PPi [6, 18]: 0 mM/min/mM enzyme; Formed PPi [6, 19]: 0.04 mM/min/mM enzyme; Formed PPi [6, 7]: 0 mM/min/mM enzyme; Formed PPi [2, 20]: 0.08 mM/min/mM enzyme; Formed PPi [2, 21]: 0.11 mM/min/mM enzyme; Formed PPi [2, 22]: 0 mM/min/mM enzyme; Formed PPi [2, 23]: 0.66 mM/min/mM enzyme; Formed PPi [2, 24]: 0.63 mM/min/mM enzyme; Formed PPi [2, 25]: 0.86 mM/min/mM enzyme; adenylation activity (absorption 360 nm, PPi release assay) [2, 17]: clear adenylation activity; adenylation activity (absorption 360 nm, PPi release assay) [3, 17]: no activity; adenylation activity (absorption 360 nm, PPi release assay) [4, 17]: no activity
StaA_M1_A: purified adenylation domain of StaA module M1 (SEQ ID NO: 3); Streptomyces toyocaensis | clear adenylation activity | No adenylation activity | clear adenylation activity | No adenylation activity | no activity | No adenylation activity | no activity | No adenylation activity | – | – | – | – | – | – | – | – | – | – | – | – | –
Tcp9_M1_AT: purified adenylation thiolation didomain of Tcp9 (SEQ ID NO: 1 plus adjacent thiolation domain), MBP fusion, His-tag | – | No adenylation activity | – | No adenylation activity | – | No adenylation activity | – | No adenylation activity | – | – | – | – | – | – | 1.18 | 1.20 | 1.23 | 1.16 | 1.34 | 1.40 | adenylation activity (absorption 360 nm, PPi release assay) [1, 17]: clear adenylation activity; Formed PPi [5, 18]: 1.32 mM/min/mM enzyme; Formed PPi [5, 19]: 1.44 mM/min/mM enzyme; Formed PPi [5, 7]: 2.32 mM/min/mM enzyme; Formed PPi [6, 18]: 0.05 mM/min/mM enzyme; Formed PPi [6, 19]: 0.05 mM/min/mM enzyme; Formed PPi [6, 7]: 0.07 mM/min/mM enzyme; Formed PPi [2, 20]: 2.07 mM/min/mM enzyme; Formed PPi [2, 21]: 1.71 mM/min/mM enzyme; Formed PPi [2, 22]: 3.72 mM/min/mM enzyme; Formed PPi [2, 23]: 5.28 mM/min/mM enzyme; Formed PPi [2, 24]: 4.63 mM/min/mM enzyme; Formed PPi [2, 25]: 8.44 mM/min/mM enzyme; adenylation activity (absorption 360 nm, PPi release assay) [2, 17]: clear adenylation activity; adenylation activity (absorption 360 nm, PPi release assay) [3, 17]: no activity; adenylation activity (absorption 360 nm, PPi release assay) [4, 17]: no activity
